Laboratory results from ChEMBL document CHEMBL1136922, “Antitumor agents. 266. Design, synthesis, and biological evaluation of novel 2-(furan-2-yl)naphthalen-1-ol derivatives as potent and selective antibreast cancer agents” (2009).
Converted amounts (≈) assume the structure as drawn.

What was measured:
Assay type in all cases: functional
MCF7 = assay: Cytotoxicity against human MCF7 cells expressing estrogen receptor after 72 hrs by SRB assay; conditions: MCF7, 72 h, read-out: ED50 (the source's name)
SK-BR-3 = assay: Cytotoxicity against estrogen receptor deficient human SKBR3 cells overexpressing human epidermal growth factor receptor 2 after 72 hrs by SRB assay; conditions: SK-BR-3, 72 h, read-out: ED50 (the source's name)
ZR-75-1 [1] = assay: Cytotoxicity against human ZR-75-1 cells expressing estrogen receptor and HER2 after 72 hrs by SRB assay; conditions: ZR-75-1, 72 h, read-out: ED50 (the source's name)
MDA-MB-231 = assay: Cytotoxicity against estrogen receptor deficient human MDA-MB-231 cells after 72 hrs by SRB assay; conditions: MDA-MB-231, 72 h, read-out: ED50 (the source's name)
A549 = assay: Cytotoxicity against human A549 cells after 72 hrs by SRB assay; conditions: A549, 72 h, read-out: ED50 (the source's name)
DU-145 = assay: Cytotoxicity against human DU145 cells after 72 hrs by SRB assay; conditions: DU-145, 72 h, read-out: ED50 (the source's name)
KB = assay: Cytotoxicity against human KB cells after 72 hrs by SRB assay; conditions: read-out: ED50 (the source's name)
[2] = Cytotoxicity against vincristine-resistant human KBVIN cells after 72 hrs by SRB assay; conditions: read-out: ED50 (the source's name)
ZR-75-1 [3] = assay: Selectivity ratio of ED50 for estrogen receptor deficient human SKBR3 cells overexpressing HER2 to ED50 for human ZR-75-1 cells expressing estrogen receptor and HER2
ZR-75-1 [4] = assay: Selectivity ratio of ED50 for human MCF7 cells expressing estrogen receptor to ED50 for human ZR-75-1 cells expressing estrogen receptor and HER2

Compound | EC50 (MCF7) | EC50 (SK-BR-3) | EC50 (ZR-75-1 [1]) | EC50 (MDA-MB-231) | EC50 (A549) | EC50 (DU-145) | EC50 (KB) | EC50 [2] | Ratio ED50 (ZR-75-1 [3]) | Ratio ED50 (ZR-75-1 [4])
Cc1coc(-c2ccc3ccccc3c2O)c1C(=O)O | 6 µg/mL (≈ 22.4 µM) | 7 µg/mL (≈ 26.1 µM) |  |  |  |  |  |  |  | 
COc1cccc2c(O)c(-c3occ(C)c3C(=O)O)ccc12 | > 20 µg/mL | 3.5 µg/mL (≈ 11.7 µM) | 0.6 µg/mL (≈ 2.01 µM) | > 10 µg/mL | 10.1 µg/mL (≈ 33.9 µM) | 8.2 µg/mL (≈ 27.5 µM) | 9.7 µg/mL (≈ 32.5 µM) | 8.9 µg/mL (≈ 29.8 µM) | 6 | 33
CCc1cccc2c(O)c(-c3occ(C)c3C(=O)O)ccc12 | 3.3 µg/mL (≈ 11.1 µM) | 1 µg/mL (≈ 3.37 µM) | 0.3 µg/mL (≈ 1.01 µM) | > 10 µg/mL | 10.6 µg/mL (≈ 35.8 µM) | 8.7 µg/mL (≈ 29.4 µM) | 9.1 µg/mL (≈ 30.7 µM) | 7 µg/mL (≈ 23.6 µM) | 3 | 10
CC/C(=C(\c1ccccc1)c1ccc(OCCN(C)C)cc1)c1ccccc1 [TAMOXIFEN] | 5 µg/mL (≈ 13.5 µM) | 5 µg/mL (≈ 13.5 µM) |  |  |  |  |  |  |  | 
CCc1coc(-c2ccc3c(CC)cccc3c2O)c1C(=O)O | 5.1 µg/mL (≈ 16.4 µM) | 5.4 µg/mL (≈ 17.4 µM) |  |  |  |  |  |  |  | 
CCc1cccc2c(OC)c(-c3occ(C)c3C(=O)OC)ccc12 | 2.5 µg/mL (≈ 7.71 µM) | 1.2 µg/mL (≈ 3.7 µM) | 1.3 µg/mL (≈ 4.01 µM) | 2.3 µg/mL (≈ 7.09 µM) | 1.5 µg/mL (≈ 4.62 µM) | 2.2 µg/mL (≈ 6.78 µM) | 1.7 µg/mL (≈ 5.24 µM) | 1.3 µg/mL (≈ 4.01 µM) |  | 
Cc1coc2c1c(=O)oc1c3ccccc3ccc21 | 4 µg/mL (≈ 16 µM) | 1 µg/mL (≈ 4 µM) |  |  |  |  |  |  |  | 
Cc1coc(-c2ccc3ccccc3c2O)c1CO | 7 µg/mL (≈ 27.5 µM) | 9.5 µg/mL (≈ 37.4 µM) |  |  |  |  |  |  |  | 
CCc1cccc2c1ccc1c3occ(C)c3c(=O)oc21 | 0.2 µg/mL (≈ 0.719 µM) | 0.1 µg/mL (≈ 0.359 µM) | 0.1 µg/mL (≈ 0.359 µM) | > 10 µg/mL | 10.6 µg/mL (≈ 38.1 µM) | 15.9 µg/mL (≈ 57.1 µM) | 13.1 µg/mL (≈ 47.1 µM) | 13.2 µg/mL (≈ 47.4 µM) |  | 2
C#CCOc1cc(=O)oc2c1ccc1ccccc12 | 20 µg/mL (≈ 79.9 µM) | 16 µg/mL (≈ 63.9 µM) |  |  |  |  |  |  |  | 
COC(=O)c1c(C)coc1-c1ccc2ccccc2c1OC | 8.5 µg/mL (≈ 28.7 µM) | 6.5 µg/mL (≈ 21.9 µM) |  |  |  |  |  |  |  | 
Cc1coc2c1c(=O)oc1cc(OC(C)C)ccc12 | 12 µg/mL (≈ 46.5 µM) | 10.8 µg/mL (≈ 41.8 µM) |  |  |  |  |  |  |  | 
CCc1cccc2c(O)c(-c3oc(C)c(C)c3C(=O)O)ccc12 | 8.5 µg/mL (≈ 27.4 µM) | 10.4 µg/mL (≈ 33.5 µM) |  |  |  |  |  |  |  | 
COc1c(-c2occ(C)c2C(=O)O)ccc2ccccc12 | 18 µg/mL (≈ 63.8 µM) | 16.7 µg/mL (≈ 59.2 µM) |  |  |  |  |  |  |  | 
Cc1cccc2c(OC(=O)c3ccoc3)cccc12 | > 20 µg/mL | > 20 µg/mL |  |  |  |  |  |  |  | 
CCc1cccc2c(O)c(-c3occ(C)c3CO)ccc12 | 12 µg/mL (≈ 42.5 µM) | 12.8 µg/mL (≈ 45.3 µM) |  |  |  |  |  |  |  | 
CCc1cccc2c(OC)c(-c3occ(C)c3C(=O)O)ccc12 | 4.3 µg/mL (≈ 13.9 µM) | 8.5 µg/mL (≈ 27.4 µM) |  |  |  |  |  |  |  | 
CCOc1cccc2c(O)c(-c3occ(C)c3C(=O)O)ccc12 | 7.5 µg/mL (≈ 24 µM) | 6 µg/mL (≈ 19.2 µM) |  |  |  |  |  |  |  | 
